Results as given in patent US9744145B1, “Methods for treating lung cancer” (Macau University of Science and Technology, priority 2017, dated 2017).

How the values were obtained:
PKM2 enzyme = PKM2 enzyme (Homo sapiens, UniProt P14618); test: PKM2 enzyme activity assay (KINASE GLO Plus); type: biochemical
Description: 5. PKM2 Enzyme Activity Assay
PKM2 biochemical assay Compounds were pre-incubated with 2 nmol/L PKM2 enzyme in reaction buffer (50 mmol/L Tris-HCl, pH 8.0, 200 mmol/L KCl, 30 mmol/L MgCl2, 2 mmol/L dithiothreitol (DTT), 5% DMSO) for 30 minutes at room temperature. ADP and PEP were then added to final concentrations of […] and 15 mmol/L, respectively. After 30 minutes, ATP formation was measured by KINASE GLO® Plus from Promega, and Concentration at half-maximal activation (AC50) values were determined using Prism GraphPad Software.
PKM2 enzyme activity assay over the concentration of formula I was performed in KINASE GLO® Plus assay. The controls were conducted in the presence of 5% Dimethyl sulfoxide (DMSO) and normalized to 100%±SD. […] (n=3, **p<0.005, ***p<0.001). […] The maximum PKM2 enzyme activity was more than 200% compared to that in controls.

H1975 cells = test: Apoptosis assay, Annexin V/PI flow cytometry, H1975; type: cell-based; conditions: 24, 48 and 72 hours, vs control group
Description: (§1) A549 and H1975 cells (1×10^5 cells/well) were seeded in a well plate with 6 wells for 24 hours, and treated with the indicated concentrations of formula I for an additional 24 hours, 48 hours and 72 hours at 37° C. After indicated hours, the cells were washed by ice-cold 1×PBS once and harvested by trypsination. Then cells were centrifuged, collected, and resuspended in ice-cold 1×PBS. After removing the supernatants, cell pellets were re-suspended in 100 μL 1×Annexin-binding buffer. The cells were then double-stained with Annexin-V FITC and PI (100 μg/mL) of 2 μL respectively for 15 min at room temperature in dark. After that, 300 μL 1× Annexin-binding buffer was added. Apoptotic cells were quantitatively counted by a BD Aria III Flow Cytometer (BD Biosciences, San Jose, Calif., USA)

A549 cells = test: Apoptosis assay, Annexin V/PI flow cytometry, A549; type: cell-based; conditions: 24, 48 and 72 hours, vs control group
Description: as §1

[1] = tested on: PKM2 phosphorylation / AKT pathway in H1975 cells; test: Western blot analysis, H1975; type: cell-based
Description: (§2) After incubation A549 and H1975 cells with formula I for 24 hours and 72 hours, A549 and H1975 cells were harvested and washed with cold 1×PBS. Then, cells were lysed with ice-cold RIPA lysis buffer with protease, and phosphatase inhibitors were added to extract the cell protein extraction. The supernatants were collected by centrifugation at 12,000 g, for 5 minutes. The quantitation of total protein extraction was measured by Bio-Rad DCTM protein assay kit (Bio-Rad, Philadelphia, Pa., USA). Then 30 μg of protein were loaded and electrophoretically separated on 8% SDS-PAGE gel and then transferred to Nitrocellulose (NC) membrane. Membranes were blocked with 5% non-fat milk and […] containing 0.1% Tween-20 (TBST) for 1 hour at room temperature. After 1 hour, membranes were incubated with primary anti-bodies (1:1000 dilution) against β-actin, total/phosphor-PKM2, total/phosphor-AKT, and BCL-2 at 4° C. with gently shaking overnight. Membranes were washed with TBST for 3 times (5 minutes/time), and incubated with secondary fluorescent antibody (1:10000 dilutions) for 1 hour at room temperature. Rewashing with TBST for 3 times (15 minutes/time), the stripes were visualized by LI-COR Odessy scanner (Belfast, Me., USA).

[2] = tested on: PKM2 phosphorylation / AKT pathway in A549 cells; test: Western blot analysis, A549; type: cell-based
Description: as §2

PKM2 enzyme, sequence (P14618 whole entry): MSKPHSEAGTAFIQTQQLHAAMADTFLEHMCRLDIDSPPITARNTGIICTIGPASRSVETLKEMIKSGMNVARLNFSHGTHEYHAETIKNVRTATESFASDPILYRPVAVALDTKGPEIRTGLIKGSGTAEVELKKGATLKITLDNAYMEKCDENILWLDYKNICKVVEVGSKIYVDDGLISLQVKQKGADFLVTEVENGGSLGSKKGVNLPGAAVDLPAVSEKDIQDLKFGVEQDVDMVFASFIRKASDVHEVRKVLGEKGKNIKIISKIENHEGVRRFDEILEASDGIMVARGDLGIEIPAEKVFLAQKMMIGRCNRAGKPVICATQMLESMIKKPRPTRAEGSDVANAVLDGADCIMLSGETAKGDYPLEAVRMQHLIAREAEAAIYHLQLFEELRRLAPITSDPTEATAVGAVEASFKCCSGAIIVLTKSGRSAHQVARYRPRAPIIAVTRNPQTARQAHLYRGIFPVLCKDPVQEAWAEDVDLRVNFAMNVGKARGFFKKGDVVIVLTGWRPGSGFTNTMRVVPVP

Structure (SMILES): O=S(=O)(Nc1ccccc1)c1ccc(-c2ccc(S(=O)(=O)Nc3ccccc3)cc2)cc1 [formula I]
- AC50 (PKM2 enzyme; 2 nmol/L PKM2, KINASE GLO Plus, n=3, read-out: AC50 (concentration at half-maximal activation)): 5.5 ± 1 µM
- maximum PKM2 enzyme activity compared to controls (PKM2 enzyme; controls with 5% DMSO normalized to 100%): more than 200%
- apoptosis level (H1975 cells): induced significant level of apoptosis in a concentration-dependent manner
- apoptosis level (A549 cells): induced significant level of apoptosis in a concentration-dependent manner
- AKT pathway [1]: selectively inhibited AKT pathway
- PKM2 phosphorylation ([1]; β-actin loading control): activated phosphorylation of both PKM2 in a dose-dependent manner
- AKT pathway [2]: selectively inhibited AKT pathway
- PKM2 phosphorylation ([2]; β-actin loading control): activated phosphorylation of both PKM2 in a dose-dependent manner
